Laboratory results published in US11160280B2, “Pesticial compounds” (BASF SE, priority 2017, dated 2021).

Columns and labels:
Format in all cases: in vivo
[1] = system: Southern Armyworm (Spodoptera eridania), 2nd Instar Larvae; test: Action on southern armyworm (Spodoptera eridania), 2nd instar larvae on sprayed lima bean plants; details: 96 h, 2nd instar larvae on lima bean plants, 4 days after treatment, read-out: mortality in comparison with untreated controls
Procedure: Example B7: Action on Southern Armyworm (Spodoptera eridania), 2nd Instar Larvae
The active compounds were formulated by a Tecan liquid handler in 100% cyclohexanone as a 10,000 ppm solution supplied in tubes. The 10,000 ppm solution was serially diluted in 100% cyclohexanone to make interim solutions. These served as stock solutions for which final dilutions were made by the Tecan in 50% acetone:50% water (v/v) into 10 or 20 ml glass vials. A nonionic surfactant (Kinetic®) was included in the solution at a volume of 0.01% (v/v). The vials were then inserted into an automated electrostatic sprayer equipped with an atomizing nozzle for application to plants/insects.
Lima bean plants (variety Sieva) were grown 2 plants to a pot and selected for treatment at the 1st true leaf stage. Test solutions were sprayed onto the foliage by an automated electrostatic plant sprayer equipped with an atomizing spray nozzle. The plants were dried in the sprayer fume hood and then removed from the sprayer. Each pot was placed into perforated plastic bags with a zip closure. About 10 to 11 armyworm larvae were placed into the bag and the bags zipped closed. Test plants were maintained in a growth room at about 25° C. and about 20-40% relative humidity for 4 days, avoiding direct exposure to fluorescent light (24 hour photoperiod) to prevent trapping of heat inside the bags. Mortality and reduced feeding were assessed 4 days after treatment, compared to untreated control plants.

[2] = system: Orchid thrips (Dichromothrips corbetti); test: Action on orchid thrips (Dichromothrips corbetti), floral-immersion technique; details: adult thrips, mortality 72 hours after treatment, read-out: mortality in comparison with untreated controls
Procedure: Example B2: Action on Orchid thrips (Dichromothrips corbetti)
Dichromothrips corbetti adults used for bioassay were obtained from a colony maintained continuously under laboratory conditions. For testing purposes, the test compound is diluted in a 1:1 mixture of acetone:water (vol:vol), plus Kinetic® HV at a rate of 0.01% v/v.
Thrips potency of each compound was evaluated by using a floral-immersion technique. All petals of individual, intact orchid flowers were dipped into treatment solution and allowed to dry in Petri dishes. Treated petals were placed into individual re-sealable plastic along with about […]. All test arenas were held under continuous light and a temperature of about 28° C. for duration of the assay. After 3 days, the numbers of live thrips were counted on each petal. The percent mortality was recorded 72 hours after treatment.

[3] = system: tobacco budworm (Heliothis virescens); test: Action on tobacco budworm (Heliothis virescens), eggs on insect diet in microtiter plates; details: 120 h, egg and larval mortality after 5 days, read-out: mortality in comparison with untreated controls
Procedure: Example B5: Action on Tobacco Budworm (Heliothis virescens)
For evaluating control of tobacco budworm (Heliothis virescens) the test unit consisted of 96-well-microtiter plates containing an insect diet and 15-25 H. virescens eggs.
The compounds were formulated using a solution containing 75% v/v water and 25% v/v DMSO. Different concentrations of formulated compounds were sprayed onto the insect diet at 10 μl, using a custom built micro atomizer, at two replications.
After application, microtiter plates were incubated at about 28±1° C. and about 80±5% relative humidity for 5 days. Egg and larval mortality was then visually assessed.

[4] = system: Diamond Back Moth (Plutella xylostella); test: Action on diamond back moth (Plutella xylostella), cabbage leaf dip; details: foliar, 3rd instar larvae on dipped cabbage leaves, mortality 72 hours after treatment, read-out: mortality in comparison with untreated controls
Procedure: Example B6: Action on Diamond Back Moth (Plutella xylostella)
The active compound is dissolved at the desired concentration in a mixture of 1:1 (vol:vol) distilled water:acetone. Surfactant (Kinetic® HV) is added at a rate of 0.01% (vol/vol). The test solution is prepared at the day of use.
Leaves of cabbage were dipped in test solution and air-dried. Treated leaves were placed in petri dishes lined with moist filter paper and inoculated with ten 3rd instar larvae. Mortality was recorded 72 hours after treatment. Feeding damages were also recorded using a scale of 0-100%.

[5] = system: yellow fever mosquito (Aedes aegypti); test: whole plant or invertebrate; details: 48 h, larval mortality visually assessed after 2 days, read-out: mortality in comparison with untreated controls
Procedure: Example B1: Action on Yellow Fever Mosquito (Aedes aegypti)
For evaluating control of yellow fever mosquito (Aedes aegypti) the test unit consisted of 96-well-microtiter plates containing 200 μl of tap water per well and 5-15 freshly hatched A. aegypti larvae.
The active compounds were formulated using a solution containing 75% (v/v) water and 25% (v/v) DMSO. Different concentrations of formulated compounds or mixtures were sprayed onto the insect diet at 2.5 μl, using a custom built micro atomizer, at two replications.
After application, microtiter plates were incubated at 28+1° C., 80+5% RH for 2 days. Larval mortality was then visually assessed.

[6] = system: boll weevil (Anthonomus grandis); test: Action on boll weevil (Anthonomus grandis), eggs on insect diet in microtiter plates; details: 120 h, egg and larval mortality after 5 days, read-out: mortality in comparison with untreated controls
Procedure: Example B3: Action on Boll Weevil (Anthonomus grandis)
For evaluating control of boll weevil (Anthonomus grandis) the test unit consisted of 96-well-microtiter plates containing an insect diet and 5-10 A. grandis eggs.
The compounds were formulated using a solution containing 75% v/v water and 25% v/v DMSO. Different concentrations of formulated compounds were sprayed onto the insect diet at 5 μl, using a custom built micro atomizer, at two replications.
After application, microtiter plates were incubated at about 25±1° C. and about 75±5% relative humidity for 5 days. Egg and larval mortality was then visually assessed.

[7] = system: Silverleaf Whitefly (Bemisia argentifoli) (Adults); test: Action on silverleaf whitefly (Bemisia argentifoli) adults on sprayed cotton plants; details: Bemisia argentifolii, 72 h, mortality 3 days after treatment, read-out: mortality in comparison with untreated controls
Procedure: Example B4: Action on Silverleaf Whitefly (Bemisia argentifoli) (Adults)
The active compounds were formulated by a Tecan liquid handler in 100% cyclohexanone as a 10,000 ppm solution supplied in tubes. The 10,000 ppm solution was serially diluted in 100% cyclohexanone to make interim solutions. These served as stock solutions for which final dilutions were made by the Tecan in 50% acetone:50% water (v/v) into 5 or 10 ml glass vials. A nonionic surfactant (Kinetic®) was included in the solution at a volume of 0.01% (v/v). The vials were then inserted into an automated electrostatic sprayer equipped with an atomizing nozzle for application to plants/insects.
Cotton plants at the cotyledon stage (one plant per pot) were sprayed by an automated electrostatic plant sprayer equipped with an atomizing spray nozzle. The plants were dried in the sprayer fume hood and then removed from the sprayer. Each pot was pla-ced into a plastic cup and about 10 to 12 whitefly adults (approximately 3-5 days old) were introduced. The insects were collected using an aspirator and a nontoxic Tygon® tubing connected to a barrier pipette tip. The tip, containing the collected insects, was then gently inserted into the soil containing the treated plant, allowing insects to crawl out of the tip to reach the foliage for feeding. Cups were covered with a reusable screened lid. Test plants were maintained in a growth room at about 25° C. and about 20-40% relative humidity for 3 days, avoiding direct exposure to fluorescent light (24 hour photoperiod) to prevent trapping of heat inside the cup. Mortality was assessed 3 days after treatment, compared to untreated control plants.

Cc1cccc(C)c1NC(=S)N/N=C/c1ccc2c(COc3ccc(OC(F)(F)F)cc3)nn(C)c2c1 [Example C-1, 1-(2,6-dimethylphenyl)-3-[(E)-[1-methyl-3-[[4-(trifluoromethoxy)phenoxy]methyl]indazol-6-yl]methyleneamino]thiourea]
≥ 75%: mortality at 300 ppm [1] | mortality at 500 ppm [2] | mortality at 800 ppm [3] | mortality at 500 ppm [4] | mortality at 800 ppm [5] | mortality at 800 ppm [6]

CC(C)c1ccccc1NC(=S)N/N=C/c1ccc2c(COc3ccc(OC(F)(F)F)cc3)nn(C)c2c1 [Example C-3, 1-(2-isopropylphenyl)-3-[(E)-[1-methyl-3-[[4-(trifluoromethoxy)phenoxy]methyl]indazol-6-yl]methyleneamino]thiourea]
≥ 75%: mortality at 300 ppm [1] | mortality at 500 ppm [2] | mortality at 800 ppm [3] | mortality at 500 ppm [4] | mortality at 300 ppm [7] | mortality at 800 ppm [5] | mortality at 800 ppm [6]

CC(C)c1ccccc1N1C(=O)CS/C1=N\N=C\c1ccc2c(COc3ccc(OC(F)(F)F)cc3)nn(C)c2c1 [Example C-4, (2Z)-3-(2-isopropylphenyl)-2-[(E)-[1-methyl-3-[[4-(trifluoromethoxy)phenoxy]methyl]indazol-6-yl]methylenehydrazono]thiazolidin-4-one]
≥ 75%: mortality at 500 ppm [2] | mortality at 500 ppm [4] | mortality at 800 ppm [5] | mortality at 800 ppm [6]

CC(C)c1ccccc1/N=C1\SCC(=O)N1/N=C/c1ccc2c(C(C)Oc3ccc(OC(F)(F)F)cc3)nn(C)c2c1 (stereo not drawn) [Example C-14, (2Z)-2-(2-isopropylphenyl)imino-3-[(E)-[1-methyl-3-[1-[4-(trifluoromethoxy)phenoxy]ethyl]indazol-6-yl]methyleneamino]thiazolidin-4-one]
≥ 75%: mortality at 300 ppm [1] | mortality at 500 ppm [2] | mortality at 800 ppm [3] | mortality at 500 ppm [4] | mortality at 300 ppm [7] | mortality at 800 ppm [5]

CC(C)c1ccccc1N1C(=O)CS/C1=N\N=C\c1ccc2c(C(C)Oc3ccc(OC(F)(F)F)cc3)nn(C)c2c1 (stereo not drawn) [Example C-13, (2Z)-3-(2-isopropylphenyl)-2-[(E)-[1-methyl-3-[1-[4-(trifluoromethoxy)phenoxy]ethyl]indazol-6-yl]methylenehydrazono]thiazolidin-4-one]
≥ 75%: mortality at 300 ppm [1] | mortality at 500 ppm [2] | mortality at 800 ppm [3] | mortality at 500 ppm [4] | mortality at 300 ppm [7] | mortality at 800 ppm [5]

CC(C)c1ccccc1N1C(=O)CS/C1=N\N=Cc1cc(F)c2c(C(=O)N(C)c3ccc(OC(F)(F)F)cc3)nn(C)c2c1 [Example C-19, 4-fluoro-6-[[(Z)-[3-(2-isopropylphenyl)-4-oxo-thiazolidin-2-ylidene]hydrazono]methyl]-N,1-dimethyl-N-[4-(trifluoromethoxy)phenyl]indazole-3-carboxamide]
≥ 75%: mortality at 300 ppm [1] | mortality at 500 ppm [2] | mortality at 800 ppm [3] | mortality at 500 ppm [4] | mortality at 800 ppm [5] | mortality at 800 ppm [6]

CC(C)c1ccccc1NC(=S)N/N=C/c1cc2c(cn1)c(COc1ccc(OC(F)(F)F)cc1)nn2C [Example C-15, 1-(2-isopropylphenyl)-3-[(E)-[1-methyl-3-[[4-(trifluoromethoxy)phenoxy]methyl]pyrazolo[4,3-c]pyridin-6 yl]methyleneamino]thiourea]
≥ 75%: mortality at 300 ppm [1] | mortality at 500 ppm [2] | mortality at 800 ppm [3] | mortality at 500 ppm [4] | mortality at 800 ppm [5] | mortality at 800 ppm [6]

CC(C)c1ccccc1N1C(=O)CS/C1=N\N=C\c1ccc2c(C(=O)Nc3ccc(OC(F)(F)F)cc3)nn(C)c2c1 [Example C-8, 6-[(E)-[(Z)-[3-(2-isopropylphenyl)-4-oxo-thiazolidin-2-ylidene]hydrazono]methyl]-1-methyl-N-[4-(trifluoromethoxy)phenyl]indazole-3-carboxamide]
≥ 75%: mortality at 300 ppm [1] | mortality at 800 ppm [3] | mortality at 500 ppm [4] | mortality at 800 ppm [5] | mortality at 800 ppm [6]

Cc1cccc(C)c1N1C(=O)CS/C1=N\N=C\c1ccc2c(COc3ccc(OC(F)(F)F)cc3)nn(C)c2c1 [Example C-2, (2Z)-3-(2,6-dimethylphenyl)-2-[(E)-[1-methyl-3-[[4-(trifluoromethoxy)phenoxy]methyl]indazol-6-yl]methylenehydrazono]thiazolidin-4-one]
≥ 75%: mortality at 500 ppm [2] | mortality at 800 ppm [3] | mortality at 500 ppm [4] | mortality at 800 ppm [5] | mortality at 800 ppm [6]
